Experimental data reported in ChEMBL document CHEMBL6153042, “Glycoconjugates of adefovir and tenofovir as asialoglycoprotein-mediated Anti-HBV prodrugs with enhanced liver targeting” (Eur J Med Chem, 2025).

Assays:
[1] = Selectivity index, the ratio of CC50 for human HepG2.2.15 cells to EC50 for antiviral activity against HBV in human HepG2.2.15 cells assessed as inhibition of HBV DNA replication; assay type: toxicity, cell-based; details: read-out: Ratio CC50/EC50
[2] = Toxicity in Kunming mouse assessed as effect on heart size at 100 to 200 mg/kg, iv once daily for 5 days; assay type: organism-based; details: in vivo, 120 h, dose 100-200 mg/kg, time 5 day
[3] = Toxicity in Kunming mouse assessed as effect on liver colour at 100 to 200 mg/kg, iv once daily for 5 days; assay type: organism-based; details: in vivo, 120 h, dose 100-200 mg/kg, time 5 day
[4] = Drug uptake in Sprague-Dawley rat liver at 10 mg/kg, iv measured after 1 to 6 hrs by LC-MS/MS analysis; assay type: ADME, organism-based; details: in vivo, time 1-6 hrs
LX-2 [5] = assay: Cytotoxicity against human LX2 cells assessed as cell growth inhibition at 10 uM incubated for 48 hrs by CCK8 assay relative to control; assay type: toxicity, cell-based; details: lx-2, 48 h, 10 µM
[6] = Toxicity in Kunming mouse assessed as effect on kidney weight at 100 to 200 mg/kg, iv once daily for 5 days; assay type: organism-based; details: in vivo, 120 h, dose 100-200 mg/kg, time 5 day
[7] = Toxicity in Kunming mouse assessed as histopathological changes in kidney at 200 mg/kg, iv once daily for 5 days by H and E staining based analysis; assay type: organism-based; details: in vivo, 120 h, time 5 day
[8] = Toxicity in Kunming mouse assessed as effect on heart weight at 100 to 200 mg/kg, iv once daily for 5 days; assay type: organism-based; details: in vivo, 120 h, dose 100-200 mg/kg, time 5 day
[9] = Toxicity in Kunming mouse assessed as maximum tolerated dose administered intravenously as once daily dose for 5 days; details: in vivo, route iv, time 5 day
[10] = Toxicity in Kunming mouse assessed as histopathological changes in liver at 200 mg/kg, iv once daily for 5 days by H and E staining based analysis; assay type: organism-based; details: in vivo, 120 h, time 5 day
[11] = Drug metabolism in plasma of Sprague-Dawley rat assessed as (1-(36-(((2R,3R,4S,5R,6R)-3-acetamido-4,5-dihydroxy-6-(hydroxymethyl)tetrahydro-2H-pyran-2-yl)oxy)-21,21-bis((3-((3-(5-(((2R,3R,4S,5R,6R)-3-acetamido-4,5-dihydroxy-6-(hydroxymethyl)tetrahydro-2H-pyran-2-yl)oxy)pentanamido)propyl)amino)-3-oxopropoxy)methyl)-16,19,26,32-tetraoxo-3,6,9,12,23-pentaoxa-15,20,27,31-tetraazahexatriacontyl)-1H-1,2,3-triazol-4-yl)methyl hydrogen ((((R)-1-(6-amino-9H-purin-9-yl)propan-2-yl)oxy)methyl)phosphonate formation measured at 2.1 mins by HPLC analysis; assay type: ADME, cell-free; details: 0.035 h
[12] = Toxicity in Kunming mouse assessed as effect on heart colour at 100 to 200 mg/kg, iv once daily for 5 days; assay type: organism-based; details: in vivo, 120 h, dose 100-200 mg/kg, time 5 day
[13] = Toxicity in Kunming mouse assessed as effect on kidney size at 100 to 200 mg/kg, iv once daily for 5 days; assay type: organism-based; details: in vivo, 120 h, dose 100-200 mg/kg, time 5 day
[14] = Toxicity in Kunming mouse assessed as effect on liver size at 100 to 200 mg/kg, iv once daily for 5 days; assay type: organism-based; details: in vivo, 120 h, dose 100-200 mg/kg, time 5 day
[15] = Toxicity in Kunming mouse assessed as histopathological changes in heart at 200 mg/kg, iv once daily for 5 days by H and E staining based analysis; assay type: organism-based; details: in vivo, 120 h, time 5 day
[16] = Toxicity in Kunming mouse assessed as effect on kidney colour at 100 to 200 mg/kg, iv once daily for 5 days; assay type: organism-based; details: in vivo, 120 h, dose 100-200 mg/kg, time 5 day
[17] = Toxicity in Kunming mouse assessed as effect on liver weight at 100 to 200 mg/kg, iv once daily for 5 days; assay type: organism-based; details: in vivo, 120 h, dose 100-200 mg/kg, time 5 day
Hepatitis B virus [18] = assay: Antiviral activity against Hepatitis B virus infected in human HepG2.2.15 cells assessed as inhibition of HBV DNA replication incubated for 10 day by qPCR analysis; assay type: functional, organism-based; details: HepG2.2.15, 240 h
[19] = Toxicity in Kunming mouse assessed as effect on body weight at 100 to 200 mg/kg, iv administered once daily for 5 days; assay type: organism-based; details: in vivo, 120 h, dose 100-200 mg/kg, time 5 day
[20] = Cytotoxicity against human HepG2.2.15 cells assessed as inhibition of cell proliferation by CCK8 assay; assay type: toxicity, cell-based, HepG2 2.2.15
LX-2 [21] = assay: Cytotoxicity against human LX2 cells at 5 uM incubated for 48 hrs by CCK8 assay; assay type: toxicity, cell-based; details: lx-2, 48 h
[22] = Stability of compound in PBS buffer assessed as half-life by high-performance liquid chromatography; assay type: physicochemical
Hepatitis B virus [23] = assay: Antiviral activity against Hepatitis B virus infected in human HepG2.2.15 cells assessed as inhibition of HBV DNA replication incubated for 9 day; details: HepG2.2.15, 216 h

CC(=O)N[C@H]1[C@H](OCCCCC(=O)NCCCNC(=O)CCOCC(COCCC(=O)NCCCNC(=O)CCCCO[C@@H]2O[C@H](CO)[C@H](O)[C@@H](O)[C@H]2NC(C)=O)(COCCC(=O)NCCCNC(=O)CCCCO[C@@H]2O[C@H](CO)[C@H](O)[C@@H](O)[C@H]2NC(C)=O)NC(=O)CCC(=O)NCCOCCOCCOCCOCCn2cc(COP(=O)(CO[C@H](C)Cn3cnc4c(N)ncnc43)OCOC(=O)OC(C)C)nn2)O[C@H](CO)[C@H](O)[C@H]1O (stereo not given in full)
selectivity ratio [1]: > 1050
Activity [2]: Non-toxic
Activity [3]: Non-toxic
Drug uptake [4]: Active
Activity (LX-2 [5]): Toxic
Activity [6]: Non-toxic
Activity [7]: Non-toxic
Activity [8]: Non-toxic
MTD at 120 h [9]: ~200 mg/kg
Activity [10]: Non-toxic
Drug metabolism [11]: metabolite_detected
Activity [12]: Non-toxic
Activity [13]: Non-toxic
Activity [14]: Non-toxic
Activity [15]: Non-toxic
Activity [16]: Non-toxic
Activity [17]: Non-toxic
EC50 (Hepatitis B virus [18]): 94.8 nM
Activity [19]: Non-toxic
CC50 [20]: > 100000 nM
Activity (LX-2 [21]): Toxic
half-life [22]: > 24 h

CC(C)OC(=O)[C@H](C)N[P@](=O)(CO[C@H](C)Cn1cnc2c(N)ncnc21)Oc1ccccc1 [TENOFOVIR ALAFENAMIDE]
EC50 (Hepatitis B virus [23]): 12.2 nM
Activity (LX-2 [5]): Toxic
Activity (LX-2 [21]): Toxic
